Measurements reported in patent US9278131B2, “Process for lowering the viscosity of highly concentrated protein solutions” (ADOCIA, priority 2012, dated 2016).

Legend:
rituximab = assay: viscosity of highly concentrated rituximab solution, cone/plate rheometer; type: physicochemical; settings: rituximab 196 mg/mL, 150 mM additive
From the text: (§1) For this example, three solutions of monoclonal antibodies, i.e. a solution of bevacizumab (an IgG1 sold under the name Avastin® by Genentech/Hoffmann La Roche), a solution of infliximab (an IgG1/K sold under the name Remicade® by Schering-Plough), a solution of rituximab (an IgG1/K sold under the name mAbThera® by Hoffmann La Roche) and a solution of fusion protein, i.e. a solution of abatacept (IgG1-CTLA4 sold under the name Orencia® by Bristol-Meyers Squibb), were concentrated by ultrafiltration on Amicon® Ultra-15 filtration units with a cutoff threshold of 50 kDa.
(§2) The protein concentration of each concentrated solution was measured by UV spectroscopy (absorbance at 280 nm) after gravimetric dilution of the samples.
The solutions of rituximab (10 mg/mL) and of bevacizumab (25 mg/mL) were concentrated, respectively, to 320 mg/mL and 240 mg/mL.
(§3) The effect of RVs 2 and 9 on the viscosity of these four highly concentrated therapeutic protein solutions was then evaluated comparatively with that of Arg and NaCl.
(§4) The samples thus prepared were stored at room temperature and were analyzed using the rheometer within 24 hours of their preparation.
(§5) The pH of these formulations is the same as that of the commercial formulation of the corresponding therapeutic protein.
(§6) In this study, the highly concentrated infliximab and rituximab solutions used are the same as those which were prepared and used previously. […] The pH of these formulations is the same as that of the corresponding therapeutic protein formulation, i.e. 7.2±0.2 for infliximab, and 6.5±0.2 for rituximab.

infliximab [1] = assay: viscosity of highly concentrated infliximab solution, cone/plate rheometer at 21° C.; type: physicochemical; settings: for % viscosity reduction relative to the control infliximab solution: Table V
From the text: as §1, §2, §3, §4, §5, §6
The highly concentrated infliximab solution used is the same as that which was prepared and used previously. The “protein+RV” formulations were prepared in the presence of concentrations increasing from 0 to 200 mM of Arg or RV 9. The pH of these formulations is the same as that of the commercial infliximab formulation, i.e. 7.2±0.2.
The highly concentrated infliximab solution used is the same as that which was prepared and used previously.
The pH of these formulations is the same as that of the commercial infliximab formulation, i.e. 7.2±0.2.
The highly concentrated infliximab solution used was prepared in the same manner as that used previously. […] The pH of these formulations is the same as that of the commercial infliximab formulation, i.e. 7.2±0.2.

anti-IL5 antibody = settings: tyrosine 0.004% w/v, i.e. 0.2 mM; WO 2012/141 978; cited from earlier work
trastuzumab [2] = settings: phenylalanine 0.2%, i.e. 12 mM; trastuzumab 300 mg/mL; WO 2013/063 510; cited from earlier work
bevacizumab = assay: viscosity of highly concentrated bevacizumab solution, cone/plate rheometer; type: physicochemical; settings: Table I; bevacizumab 250 mg/mL, 150 mM additive, pH 6.2 ± 0.2, 21° C.
From the text: as §1
The protein concentration of each concentrated solution was measured by UV spectroscopy (absorbance at 280 nm) after gravimetric dilution of the samples. […]
(§7) The effect of RVs 2 and 9 on the viscosity of these four highly concentrated therapeutic protein solutions was then evaluated comparatively with that of Arg and NaCl. To do this, the viscosity was measured using a cone/plate rheometer (TA Instrument, AR 2000 Ex, geometry of diameter 20 mm, cone of 0.5131°, solvent trap filled with water) at a temperature of 21° C. and in flow sweep mode with shear rates of between 5000 and 50 s^−1 (3 points per decade—steady-state sensing). […]

abatacept = target: T1, abatacept (Homo sapiens, UniProt P16410); assay: viscosity of highly concentrated abatacept (fusion protein) solution, cone/plate rheometer; type: physicochemical; settings: Table I; abatacept 230 mg/mL, 150 mM additive, pH 7.5 ± 0.5, 21° C.
T1 construct: a fragment of a protein of interest which is the extracellular domain of the receptor of protein CTLA-4; purchased Bristol-Meyers Squibb (Orencia)
From the text: as §1, §2, §7

infliximab [3] = assay: viscosity of highly concentrated infliximab formulation, cone/plate rheometer at 25° C. (example 7); type: physicochemical; settings: Table VII; infliximab 125 mg/mL, 150 mM additive, pH 7.2 ± 0.2, 25° C.
Method: For this example, two monoclonal antibody formulations, i.e. infliximab and trastuzumab (an IgG1/κ sold under the name Herceptin® by Genentech) were concentrated by ultrafiltration on Amicon® Ultra-50 centrifugal filtration units with a cutoff threshold of 50 kDa. The protein concentration of each concentrated solution was measured by UV spectroscopy (absorbance at 280 nm) after gravimetric dilution of the samples. […]
The effect of RVs 2 and 11 on the viscosity of these two highly concentrated therapeutic protein formulations was then evaluated comparatively to that of Arg and NaCl. To do this, the viscosity was measured using a cone/plate rheometer (TA Instrument, AR 2000 Ex, geometry of diameter 20 mm, cone of 0.5131°, solvent trap filled with water) at a temperature of 25° C. and in flow sweep mode with shear rates of between 5000 and 50 s^−1 (3 points per decade—steady-state sensing).
For this example, the “protein+RV” formulations were prepared by mixing a solution of RV at about 1 M obtained in example 1 with one of the concentrated infliximab and trastuzumab formulations prepared previously and the corresponding buffer so as to reach a final RV concentration of 150 mM and a final protein concentration of 125 mg/mL for infliximab and 200 mg/mL for trastuzumab. […]

trastuzumab [4] = assay: viscosity of highly concentrated trastuzumab formulation, cone/plate rheometer at 25° C. (example 7); type: physicochemical; settings: Table VII; trastuzumab 200 mg/mL, 150 mM additive, pH 6 ± 0.2, 25° C.
Method: For this example, two monoclonal antibody formulations, i.e. infliximab and trastuzumab (an IgG1/κ sold under the name Herceptin® by Genentech) were concentrated by ultrafiltration on Amicon® Ultra-50 centrifugal filtration units with a cutoff threshold of 50 kDa. The protein concentration of each concentrated solution was measured by UV spectroscopy (absorbance at 280 nm) after gravimetric dilution of the samples.
Once reconstituted, the infliximab and trastuzumab formulations were concentrated, respectively, to 212 mg/mL and 277 mg/mL.
The effect of RVs 2 and 11 on the viscosity of these two highly concentrated therapeutic protein formulations was then evaluated comparatively to that of Arg and NaCl. To do this, the viscosity was measured using a cone/plate rheometer (TA Instrument, AR 2000 Ex, geometry of diameter 20 mm, cone of 0.5131°, solvent trap filled with water) at a temperature of 25° C. and in flow sweep mode with shear rates of between 5000 and 50 s^−1 (3 points per decade—steady-state sensing). […]

[5] = Table II, infliximab 107 mg/mL, 150 mM additive, pH 7.2 ± 0.2

T1 sequence (P16410 with tags, fused parts or gaps limits assumed): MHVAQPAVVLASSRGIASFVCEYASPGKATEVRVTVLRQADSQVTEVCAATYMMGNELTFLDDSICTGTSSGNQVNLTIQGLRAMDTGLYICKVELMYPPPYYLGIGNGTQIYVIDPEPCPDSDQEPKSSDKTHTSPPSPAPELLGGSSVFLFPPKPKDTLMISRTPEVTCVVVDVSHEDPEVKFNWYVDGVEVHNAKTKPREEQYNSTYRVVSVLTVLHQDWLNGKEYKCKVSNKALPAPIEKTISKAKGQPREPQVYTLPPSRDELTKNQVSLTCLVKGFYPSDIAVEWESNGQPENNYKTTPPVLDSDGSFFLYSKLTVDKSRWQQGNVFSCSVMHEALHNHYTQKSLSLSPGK

Cl.NCCOc1ccccc1 [RV 8, 2-phenoxyethylamine hydrochloride salt]
% viscosity reduction relative to the control “protein alone” (rituximab; Table III, pH 6.5 ± 0.2): 52%
% viscosity reduction relative to the control “protein alone” (infliximab [1]; [5]): 46%

N[C@@H](Cc1ccc(O)cc1)C(=O)O [tyrosine]
increase of the viscosity of the anti-IL5 antibody solution (anti-IL5 antibody): 44%

Cl.NCCc1ccccc1 [RV 6, 2-phenylethylamine hydrochloride salt]
% viscosity reduction relative to the control “protein alone” (rituximab; Table III, pH 6.5 ± 0.2): 39%
% viscosity reduction relative to the control “protein alone” (infliximab [1]; [5]): 38%

N[C@@H](Cc1ccccc1)C(=O)O [phenylalanine]
increase of the viscosity of a trastuzumab formulation (trastuzumab [2]): 83%

[Cl-].[Na+] [NaCl, sodium chloride]
% viscosity reduction relative to the control “protein alone” (bevacizumab): ≦0%
% viscosity reduction relative to the control “protein alone” (rituximab; Table I, pH 6.5 ± 0.2, 21° C.): 21%
% viscosity reduction relative to the control “protein alone” (rituximab; Table III, pH 6.5 ± 0.2): 21%
% viscosity reduction relative to the control “protein alone” (abatacept): 7%
% viscosity reduction relative to the control “protein alone” (infliximab [1]; Table I, infliximab 107 mg/mL, 150 mM additive, pH 7.2 ± 0.2, 21° C.): ≦0%
% viscosity reduction relative to the control “protein alone” (infliximab [1]; [5]): ≦0%
% of viscosity reduction relative to the control “protein alone” (infliximab [3]): ≦0%
% of viscosity reduction relative to the control “protein alone” (trastuzumab [4]): 38%

Cl.NCCc1ccc(O)c(O)c1 [RV 7, dopamine hydrochloride salt]
% viscosity reduction relative to the control “protein alone” (rituximab; Table III, pH 6.5 ± 0.2): 39%
% viscosity reduction relative to the control “protein alone” (infliximab [1]; [5]): 38%

Cl.NC(=O)[C@@H](N)Cc1ccccc1 [RV 9, L-phenylalaninamide hydrochloride salt]
% viscosity reduction relative to the control “protein alone” (rituximab; Table III, pH 6.5 ± 0.2): 48%
% viscosity reduction relative to the control “protein alone” (infliximab [1]; [5]): 52%
% viscosity reduction relative to the control “protein alone” (infliximab [1]; Table IV, infliximab 107 mg/mL, additive 25 mM, pH 7.2 ± 0.2): 19%
% viscosity reduction relative to the control “protein alone” (infliximab [1]; Table IV, infliximab 107 mg/mL, additive 50 mM, pH 7.2 ± 0.2): 31%
% viscosity reduction relative to the control “protein alone” (infliximab [1]; Table IV, infliximab 107 mg/mL, additive 100 mM, pH 7.2 ± 0.2): 41%
% viscosity reduction relative to the control “protein alone” (infliximab [1]; Table IV, infliximab 107 mg/mL, additive 150 mM, pH 7.2 ± 0.2): 44%
% viscosity reduction relative to the control “protein alone” (infliximab [1]; Table IV, infliximab 107 mg/mL, additive 200 mM, pH 7.2 ± 0.2): 56%
% viscosity reduction relative to the control infliximab solution (infliximab [1]; infliximab 80 mg/mL, additive at 150 mM, pH 7.2 ± 0.2): 50%
% viscosity reduction relative to the control infliximab solution (infliximab [1]; infliximab 90 mg/mL, additive at 150 mM, pH 7.2 ± 0.2): 52%
% viscosity reduction relative to the control infliximab solution (infliximab [1]; infliximab 100 mg/mL, additive at 150 mM, pH 7.2 ± 0.2): 55%
% viscosity reduction relative to the control infliximab solution (infliximab [1]; infliximab 110 mg/mL, additive at 150 mM, pH 7.2 ± 0.2): 49%
viscosity lowering on average, irrespective of the infliximab concentration (infliximab [1]; average over infliximab 80-110 mg/mL, additive at 150 mM): about 52%
concentration sufficient to obtain a viscosity reduction equivalent to that obtained using Arg at 150 mM (infliximab [1]; infliximab 107 mg/mL): 50000 µM
efficiency in viscosity reduction relative to Arg (infliximab [1]; infliximab 107 mg/mL, at 100 mM): about 4 times
efficiency in viscosity reduction relative to Arg (infliximab [1]; infliximab 107 mg/mL, at 150 mM): twice as efficient as Arg

Cl.N[C@H](CO)Cc1ccccc1 [RV 4, (S)-(−)-2-amino-3-phenyl-1-propanol hydrochloride salt]
% viscosity reduction relative to the control “protein alone” (rituximab; Table III, pH 6.5 ± 0.2): 37%
% viscosity reduction relative to the control “protein alone” (infliximab [1]; [5]): 36%

Cl.NC(Cc1ccccc1)C(=O)NCCO (stereo not drawn) [RV 2, (2S-2-amino(3-phenylpropanoyl)amino)-ethanol hydrochloride salt]
% viscosity reduction relative to the control “protein alone” (rituximab; Table III, pH 6.5 ± 0.2): 43%
% viscosity reduction relative to the control “protein alone” (infliximab [1]; [5]): 56%

C[N+](C)(C)Cc1ccccc1.[Cl-] [RV 5, benzyltrimethylammonium chloride]
% viscosity reduction relative to the control “protein alone” (rituximab; Table III, pH 6.5 ± 0.2): 38%
% viscosity reduction relative to the control “protein alone” (infliximab [1]; [5]): 49%
